Data as given in patent US11806313B2, “Abiraterone acetate containing composition and application thereof” (Hunan Huize Biopharma S & T Co., Ltd, priority 2021, dated 2023).

How the values were obtained:
[1] = cited from earlier work
[2] = cited from earlier work; remark: listed apart in the source
[3] = format: physicochemical
Text: Therefore, the self-microemulsion system of the present invention can choose the mixture of glycerol monolinoleate (CC) and medium chain triglyceride (MCT) as the oil phase. […] Accordingly, when glycerol monolinoleate and medium chain triglyceride are used in combination as the oil phase, in order to ensure a larger drug loading capacity, the amount of CC in the oil phase should be as much as possible, while the amount of MCT should be as little as possible.
When PEG-40 hydrogenated castor oil (RH40) and 2-(2-ethoxyethoxy)ethanol (HP) are used in combination as the emulsion phase, in order to ensure the emulsification effect of the self-microemulsion system and to ensure a large drug loading capacity, one should increase the amount of RH40 in the emulsion phase while also reduce the amount of HP as much as possible.

[4] = high-fat diet (57% fat, 825 calories)
[5] = low-fat diet (7% fat, 300 calories)

In the case of `CC(=O)O[C@H]1CC[C@@]2(C)C(=CC[C@@H]3[C@@H]2CC[C@]2(C)C(c4cccnc4)=CC[C@@H]32)C1` [abiraterone acetate, (3β)-17-(3-pyridyl)androsta-5,16-dien-3-yl acetate], the solubility in water [1] is listed as “less than 0.01 mg/ml”, the “increase of AUC0-∞ with food” value [2, 4] is listed as about 10 times and the “increase of Cmax with food” value [2, 4] is listed as “about 17 times”. The “increase of AUC0-∞ of abiraterone with food” value [2, 5] was about 5 times, the “increase of Cmax of abiraterone with food” value [2, 5] was “about 7 times” and the “solubility in 2-(2-ethoxyethoxy)ethanol (HP)” value [3] was “about 69.0 mg/g”. For the same compound, the “solubility in PEG-40 hydrogenated castor oil (RH40)” value [3] was “about 24.7 mg/g”, the “solubility in glycerol monolinoleate (CC)” value [3] was “about 62.9 mg/g” and the “solubility in medium chain triglyceride (MCT)” value [3] was “about 28.4 mg/g”.
